Laboratory results taken from ChEMBL document CHEMBL1201862, “PubChem BioAssay data set” (2004).
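Dose response: 5 concentrations. Exposure: 48 h. Format: 96-well plates. Endpoint: linear interpolation; highest concentration if not reached. The concentration for 50% growth inhibition is given as GI50.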 Calls of active or inactive are those of the source. Cut-off read from the data, not from the text of the source: active = GI50 up to about 1.1 µM and inactive = higher.

Key:
Experiment in all cases: growth of human tumour cells (NCI), 48 h
OVCAR-4 = tested on: OVCAR-4
PC-3 = tested on: PC-3
U-251 = tested on: U-251
CCRF-CEM = tested on: CCRF-CEM
K562 = tested on: K562
SNB-75 = tested on: SNB-75
HCT-116 = tested on: HCT-116
HOP-62 = tested on: HOP-62
RPMI-8226 = tested on: RPMI-8226
OVCAR-5 = tested on: OVCAR-5
TK-10 = tested on: TK-10
MDA-MB-435 = tested on: MDA-MB-435
SF-268 = tested on: SF-268
NCI-H23 = tested on: NCI-H23
SK-MEL-5 = tested on: SK-MEL-5
KM12 = tested on: KM12
MOLT-4 = tested on: MOLT-4
HCC 2998 = tested on: HCC 2998
OVCAR-3 = tested on: OVCAR-3
MDA-MB-231 = tested on: MDA-MB-231

SMILES | GI50 (OVCAR-4) | GI50 (PC-3) | GI50 (U-251) | GI50 (CCRF-CEM) | GI50 (K562) | GI50 (SNB-75) | GI50 (HCT-116) | GI50 (HOP-62) | GI50 (RPMI-8226) | GI50 (OVCAR-5) | GI50 (TK-10) | GI50 (MDA-MB-435) | GI50 (SF-268) | GI50 (NCI-H23) | GI50 (SK-MEL-5) | GI50 (KM12) | GI50 (MOLT-4) | GI50 (HCC 2998) | GI50 (OVCAR-3) | GI50 (MDA-MB-231)
O=C(c1nc2ccc([N+](=O)[O-])cc2nc1O)C(O)c1ccc2c(c1)OCO2 (stereo not given) | > 100 µM (inactive) | > 100 µM (inactive) | > 100 µM (inactive) | 83.9 µM (inactive) | > 78.9 µM (inactive) | > 100 µM (inactive) | 52.7 µM (inactive) | > 100 µM (inactive) | 55.5 µM (inactive) | > 100 µM (inactive) | > 100 µM (inactive) | 93.1 µM (inactive) | > 100 µM (inactive) | > 100 µM (inactive) | 45.7 µM (inactive) | > 51.2 µM (inactive) | > 100 µM (inactive) | > 100 µM (inactive) | > 50.7 µM (inactive) | > 100 µM (inactive)
CC(C)c1cc(C(C)C)c(P2(=O)CC3C(Cl)(Cl)C3(C)C2)c(C(C)C)c1 (stereo not given) | 4.94 µM (inactive) | 6.7 µM (inactive) | 8.67 µM (inactive) | 2.24 µM (inactive) | 8.95 µM (inactive) | 11.6 µM (inactive) | 7.29 µM (inactive) | 10.3 µM (inactive) | 3.24 µM (inactive) | 16.3 µM (inactive) | 12.1 µM (inactive) | 9.73 µM (inactive) | 12.1 µM (inactive) | 9.55 µM (inactive) | 10.1 µM (inactive) | 10.6 µM (inactive) | 2.77 µM (inactive) | 13.4 µM (inactive) | 7.57 µM (inactive) | 11.4 µM (inactive)
CCOC(=O)c1cn2c(n1)sc1cc(Cl)cc(Cl)c12 | > 100 µM (inactive) | > 100 µM (inactive) | > 100 µM (inactive) | > 100 µM (inactive) | > 100 µM (inactive) | > 100 µM (inactive) | > 100 µM (inactive) | > 100 µM (inactive) | > 100 µM (inactive) | > 100 µM (inactive) | > 100 µM (inactive) | > 100 µM (inactive) | > 100 µM (inactive) | > 100 µM (inactive) | > 100 µM (inactive) | > 100 µM (inactive) | > 100 µM (inactive) | > 100 µM (inactive) | > 100 µM (inactive) | > 100 µM (inactive)
CC(C)(C)c1cc(C(=O)Nc2cc(Br)c(Br)cc2S(N)(=O)=O)cc(C(C)(C)C)c1O | 12.1 µM (inactive) | 10.7 µM (inactive) | 12.5 µM (inactive) | 4.28 µM (inactive) | 5.71 µM (inactive) | 9.31 µM (inactive) | 8.24 µM (inactive) | 20.9 µM (inactive) | 8.32 µM (inactive) | 12.4 µM (inactive) | 12.9 µM (inactive) | 12.3 µM (inactive) | 13.3 µM (inactive) | 20 µM (inactive) | 12.4 µM (inactive) | 5.77 µM (inactive) | 4.39 µM (inactive) | 5.07 µM (inactive) | 7.91 µM (inactive) | 9.51 µM (inactive)
O=C1C=CC(=O)c2c1cc1ccccc1c2O | 2.33 µM (inactive) | 6.03 µM (inactive) | 14 µM (inactive) | 0.391 µM (active) | 0.767 µM (active) | 18.1 µM (inactive) | 1.85 µM (inactive) | 16.7 µM (inactive) | 2.43 µM (inactive) | 18.4 µM (inactive) | 4.24 µM (inactive) | 6.37 µM (inactive) | 8.24 µM (inactive) | 13 µM (inactive) | 12.1 µM (inactive) | 13.2 µM (inactive) | 0.387 µM (active) | 17.7 µM (inactive) | 2.12 µM (inactive) | 2.04 µM (inactive)
